Measurements from PubChem BioAssay AID1963847 (Molecular Pharmacology Branch, DTP, NCI, 2024).

Test system: 415267-285-R-J2-PDC complex spheroid viability
Experiment: Anticancer human tumor 415267-285-R-J2-PDC patient-derived breast carcinoma cell line growth inhibition [POLQ]
Conditions: for IC50: curve of first compound; for viability, T/C: stronger effect = lower value
Procedure, shortened: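 Three-cell-type spheroids modelling solid tumor plus stroma served as the readout system; POL inhibitors were tested individually and in combination, concentration ranges set by clinical Cmax where known.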

[1] = second compound 0.0316 µM, first compound 0.0316 µM
[2] = second compound 0.0316 µM, first compound 0.1 µM
[3] = second compound 0.0316 µM, first compound 0.316 µM
[4] = second compound 0.0316 µM, first compound 1 µM
[5] = second compound 0.0316 µM, first compound 3.16 µM
[6] = second compound 0.0316 µM, first compound 10 µM
[7] = second compound 0.1 µM, first compound 0.0316 µM
[8] = second compound 0.1 µM, first compound 0.1 µM
[9] = second compound 0.1 µM, first compound 0.316 µM
[10] = second compound 0.1 µM, first compound 1 µM
[11] = second compound 0.1 µM, first compound 3.16 µM
[12] = second compound 0.1 µM, first compound 10 µM
[13] = second compound 0.316 µM, first compound 0.0316 µM
[14] = second compound 0.316 µM, first compound 0.1 µM
[15] = second compound 0.316 µM, first compound 0.316 µM
[16] = second compound 0.316 µM, first compound 1 µM
[17] = second compound 0.316 µM, first compound 3.16 µM
[18] = second compound 0.316 µM, first compound 10 µM
[19] = second compound 1 µM, first compound 0.0316 µM
[20] = second compound 1 µM, first compound 0.1 µM
[21] = second compound 1 µM, first compound 0.316 µM
[22] = second compound 1 µM, first compound 1 µM
[23] = second compound 1 µM, first compound 3.16 µM
[24] = second compound 1 µM, first compound 10 µM
[25] = second compound 3.16 µM, first compound 0.0316 µM
[26] = second compound 3.16 µM, first compound 0.1 µM
[27] = second compound 3.16 µM, first compound 0.316 µM
[28] = second compound 3.16 µM, first compound 1 µM
[29] = second compound 3.16 µM, first compound 3.16 µM
[30] = second compound 3.16 µM, first compound 10 µM
[31] = second compound 10 µM, first compound 0.0316 µM
[32] = second compound 10 µM, first compound 0.1 µM
[33] = second compound 10 µM, first compound 0.316 µM
[34] = second compound 10 µM, first compound 1 µM
[35] = second compound 10 µM, first compound 3.16 µM
[36] = second compound 10 µM, first compound 10 µM
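Note: spheroids exposed to compounds for one week before readout.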
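Throughout, for viability, T/C: luminescence used as stand-in measure of viable cells; 100% = DMSO vehicle control viability.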

C=CC(=O)N1CCN(c2nc(=O)n(-c3c(C)ccnc3C(C)C)c3nc(-c4c(O)cccc4F)c(F)cc23)C(C)C1 (centres undefined) + COC1C(OC(N)=O)C(O)C(Oc2ccc3c(O)c(NC(=O)c4ccc(O)c(CC=C(C)C)c4)c(=O)oc3c2C)OC1(C)C gave an IC50 (second compound 0.0316 µM) greater than 10 µM, an IC50 (second compound 0.1 µM) greater than 10 µM and an IC50 (second compound 0.316 µM) greater than 10 µM. For the same compound, the IC50 (second compound 1 µM) was greater than 10 µM, the IC50 (second compound 3.16 µM) was greater than 10 µM and the IC50 (second compound 10 µM) was greater than 10 µM. For the same compound, the viability, T/C [1] was 103%, the viability, T/C [2] was 93.4% and the viability, T/C [3] was 105%. It also gave a viability, T/C [4] of 92.6%, a viability, T/C [5] of 112% and a viability, T/C [6] of 92.2%. The viability, T/C [7] was 85.4%, the viability, T/C [8] was 97.5% and the viability, T/C [9] was 98.5%. For the same compound, the viability, T/C [10] was 93%, the viability, T/C [11] was 108% and the viability, T/C [12] was 103%. The viability, T/C [13] was 103%, the viability, T/C [14] was 89.8% and the viability, T/C [15] was 82.8%. The viability, T/C [16] was 107%, the viability, T/C [17] was 112% and the viability, T/C [18] was 93%. The viability, T/C [19] was 98.6%, the viability, T/C [20] was 94.5% and the viability, T/C [21] was 93.9%. The viability, T/C [22] was 97%, the viability, T/C [23] was 97.5% and the viability, T/C [24] was 98.2%. For the same compound, the viability, T/C [25] was 101%, the viability, T/C [26] was 102% and the viability, T/C [27] was 97.2%. For the same compound, the viability, T/C [28] was 101%, the viability, T/C [29] was 101% and the viability, T/C [30] was 95.9%. It also gave a viability, T/C [31] of 95.1%, a viability, T/C [32] of 95.8% and a viability, T/C [33] of 112%. It also gave a viability, T/C [34] of 109%, a viability, T/C [35] of 90.6% and a viability, T/C [36] of 86.9%.

Compound CC(C)n1c(=O)n(C)c2cnc3cc(F)c(-c4ccc(OCCCN5CCCCC5)nc4)cc3c21 + COC1C(OC(N)=O)C(O)C(Oc2ccc3c(O)c(NC(=O)c4ccc(O)c(CC=C(C)C)c4)c(=O)oc3c2C)OC1(C)C has an IC50 (second compound 0.0316 µM) greater than 10 µM, an IC50 (second compound 0.1 µM) greater than 10 µM and an IC50 (second compound 0.316 µM) greater than 10 µM. It also gave an IC50 (second compound 1 µM) greater than 10 µM, an IC50 (second compound 3.16 µM) greater than 10 µM and an IC50 (second compound 10 µM) greater than 10 µM. The viability, T/C [1] was 97.5%, the viability, T/C [2] was 97.6% and the viability, T/C [3] was 95.6%. The viability, T/C [4] was 94.1%, the viability, T/C [5] was 101% and the viability, T/C [6] was 99.2%. For the same compound, the viability, T/C [7] was 89.8%, the viability, T/C [8] was 93.6% and the viability, T/C [9] was 107%. For the same compound, the viability, T/C [10] was 104%, the viability, T/C [11] was 103% and the viability, T/C [12] was 95.3%. For the same compound, the viability, T/C [13] was 96.8%, the viability, T/C [14] was 95.8% and the viability, T/C [15] was 104%. It also gave a viability, T/C [16] of 110%, a viability, T/C [17] of 112% and a viability, T/C [18] of 89.5%. It also gave a viability, T/C [19] of 99.6%, a viability, T/C [20] of 103% and a viability, T/C [21] of 91.2%. The viability, T/C [22] was 102%, the viability, T/C [23] was 95.5% and the viability, T/C [24] was 97%. For the same compound, the viability, T/C [25] was 107%, the viability, T/C [26] was 91.4% and the viability, T/C [27] was 89%. It also gave a viability, T/C [28] of 98.2%, a viability, T/C [29] of 107% and a viability, T/C [30] of 98.8%. The viability, T/C [31] was 101%, the viability, T/C [32] was 99.5% and the viability, T/C [33] was 93.5%. It also gave a viability, T/C [34] of 114%, a viability, T/C [35] of 98.4% and a viability, T/C [36] of 82.5%.
